From patent US20020198219A1, “2-pyridinamine compositions and related methods” (priority 2000, published 2002) come the findings set out here.

In the test the test system is differentiated P19 neurons. Put plainly: Drug screening using differentiated P19 cell assay (neuroprotection against glutamate/glycine). The conditions noted are these: for IC50: dose response 0.005-3 μM, 3 mM glutamate + 1 mM glycine, >1 = no maximum within highest dose (3 μM); for % neuroprotection (cell survival relative to control): screened at 1 micromolar, percentage of control cells surviving after 24 hours. The test is classed as cell-based, murine. How it is done:
Commercially available chemical libraries (BioFocus PLC, UK) were screened using the methods described herein. The stock concentration of the compounds was about 400 μM in DMSO. The concentration of compounds used in the primary screen was 1 μM. […] Columns 4-11 received compounds at the following final concentrations (μM): 3, 1.2, 0.48, 0.192, 0.077, 0.031, 0.012 and 0.005. Each row contained a different compound for confirmation. Only rows B-G received compounds, and rows A and H remained untreated. Data are expressed as % neuroprotection=((compound-glutamate average)/(U0126-glutamate average)×100).
Only the 2-pyridinamines are the subject of this invention, although limited data for 4-pyrimidinamines are presented as well. “% Inh” indicates the percentage of control cells surviving after 24 hours, and represents the neuroprotective effect of the compounds screened at 1 micromolar concentration. IC50 relate to data from dose response experiments. […] ND refers to compounds not tested in dose-response experiments. […]

As for `COc1cc(Nc2cccc(-c3cccc(N(C)C)c3)n2)cc(OC)c1OC` [Cmpd 113], the IC50 is 540 nM and the “% neuroprotection (cell survival relative to control)” value is on record as 91%.
As for `c1ccc(Oc2ccccc2-c2ccc(Nc3ccc(N4CCOCC4)cc3)nc2)cc1` [Cmpd 28], the IC50 is over 1000 nM and the “% neuroprotection (cell survival relative to control)” value is 83%.
For `CCCCCOc1ccc(Nc2ccc(-c3ccc(O)cc3)cn2)cc1` [Cmpd 9], the IC50 was 560 nM and the “% neuroprotection (cell survival relative to control)” value was 84%.
Taken in the same sequence, the figures for `CCCCCOc1ccc(Nc2ccc(-c3cccc(N)c3)cn2)cc1` [Cmpd 36] were over 1000 nM and 98%.
With `COc1ccccc1-c1ccc(Nc2ccc(N3CCOCC3)cc2)nc1` [Cmpd 32], the IC50 is over 1000 nM and the “% neuroprotection (cell survival relative to control)” value is 100%.
As for `COc1cc(Nc2ccc(-c3cccc(N(C)C)c3)cn2)cc(OC)c1OC` [Cmpd 74], the “% neuroprotection (cell survival relative to control)” value came to 95%.
`CCOc1cccc(-c2ccc(Nc3ccc4c(c3)OCCO4)nc2)c1` [Cmpd 73]: the “% neuroprotection (cell survival relative to control)” value is given as 76%.
Take `COc1ccc(Nc2ccc(-c3cccc(OC(F)(F)F)c3)cn2)cc1` [Cmpd 18]: the “% neuroprotection (cell survival relative to control)” value is on record as 74%.
Regarding `COc1cc(Nc2cccc(-c3ccc4ccccc4c3)n2)cc(OC)c1OC` [Cmpd 135, 2-pyridinamine, 6-(2-naphthyl)-N-(3,4,5-trimethoxyphenyl)-], the “% neuroprotection (cell survival relative to control)” value came to 86%. In addition, where the note is “Mus musculus, Neuron”, the IC50 worked out at 210 nM.
For `c1ccc(-c2ccc(-c3ccc(Nc4ccc(N5CCOCC5)cc4)nc3)cc2)cc1` [Cmpd 78], the IC50 was found to be 470 nM and the “% neuroprotection (cell survival relative to control)” value is reported as 109%.
Turning to `CCCCCOc1ccc(Nc2ccc(-c3cccc(N(C)C)c3)cn2)cc1` [Cmpd 75], the “% neuroprotection (cell survival relative to control)” value was determined as 88%.
`Clc1ccc(-c2ccc(Nc3ccc(N4CCOCC4)cc3)nc2)cc1` [Cmpd 29]: the IC50 was over 1000 nM and the “% neuroprotection (cell survival relative to control)” value is 82%.
Taken in the same sequence, the figures for `Cc1ccc(-c2ccc(Nc3ccc(N4CCOCC4)cc3)nc2)cc1C` [Cmpd 80] were 750 nM and 94%.
Regarding `COc1ccc(Nc2cccc(-c3cccc(N)c3)n2)cc1` [Cmpd 100], the “% neuroprotection (cell survival relative to control)” value amounted to 79%.
`COc1cc(Nc2cccc(-c3ccc(Cl)c(Cl)c3)n2)cc(OC)c1OC` [Cmpd 146]: the IC50 was determined as 320 nM and the “% neuroprotection (cell survival relative to control)” value stood at 99%.
As for `FC(F)(F)c1cc(-c2ccc(Nc3ccc(N4CCOCC4)cc3)nc2)cc(C(F)(F)F)c1` [Cmpd 21, 2-pyridinamine, 5-[3,5-bis(trifluoromethyl)phenyl]-N-[4-(4-morpholinyl)phenyl]-], the “% neuroprotection (cell survival relative to control)” value was 95%. The IC50 (Mus musculus, Neuron) was found to be 210 nM.
In the case of `COc1ccc(Nc2ccc(-c3ccc(C)c(C)c3)cn2)cc1` [Cmpd 86], the IC50 was over 1000 nM and the “% neuroprotection (cell survival relative to control)” value came out at 80%.
The corresponding values for `COc1ccc(Nc2ccc(-c3ccc(O)cc3)cn2)cc1` [Cmpd 2] are 560 nM and 94%.
The corresponding values for `COc1cc(Nc2cccc(-c3ccc(-c4ccccc4)cc3)n2)cc(OC)c1OC` [Cmpd 121] are 650 nM and 96%.
Turning to `COc1ccc(Nc2cccc(-c3ccc(Cl)cc3)n2)cc1` [Cmpd 103], the “% neuroprotection (cell survival relative to control)” value came to 75%.
As to `COc1ccc(Nc2cccc(C=Cc3ccccc3)n2)c(C)c1OC` [Cmpd 145], the half-maximal inhibitory concentration (IC50) worked out at 280 nM and the “% neuroprotection (cell survival relative to control)” value is listed as 96%.
The corresponding values for `COc1ccc(Nc2cccc(-c3cccc(N(C)C)c3)n2)cc1` [Cmpd 105] are 400 nM and 98%.
As for `FC(F)(F)Oc1ccc(-c2ccc(Nc3ccc(N4CCOCC4)cc3)nc2)cc1` [Cmpd 17], the “% neuroprotection (cell survival relative to control)” value stood at 74%.
`FC(F)(F)Oc1ccc(-c2ccc(Nc3ccc4c(c3)OCCO4)nc2)cc1` [Cmpd 4]: the concentration for half-maximal inhibition (IC50) amounted to 380 nM and the “% neuroprotection (cell survival relative to control)” value came out at 86%.
Taken in the same sequence, the figures for `COc1ccc(-c2ccc(Nc3ccc(N4CCOCC4)cc3)nc2)cc1OC` [Cmpd 79] were 460 nM and 110%.
For `COc1ccc(Nc2cccc(-c3ccccc3Oc3ccccc3)n2)cc1` [Cmpd 101], the “% neuroprotection (cell survival relative to control)” value was 78%.
In the case of `CCCCCOc1ccc(Nc2ccc(-c3cccnc3)cn2)cc1` [Cmpd 37], the “% neuroprotection (cell survival relative to control)” value was determined as 84%.
For the molecule `COc1cc(Nc2cccc(-c3ccc4c(c3)OCO4)n2)cc(OC)c1OC` [Cmpd 120, 2-pyridinamine, 6-(1,3-benzodioxol-5-yl)-N-(3,4,5-trimethoxyphenyl)-], the “% neuroprotection (cell survival relative to control)” value is listed as 97%. For the same molecule, the IC50 (Mus musculus, Neuron) is 50 nM.
The corresponding values for `COc1cc(Nc2cccc(-c3cccc(OC(F)(F)F)c3)n2)cc(OC)c1OC` [Cmpd 118, 2-pyridinamine, 6-[3-(trifluoromethoxy)phenyl]-N-(3,4,5-trimethoxyphenyl)-] are 91% and 50 nM.
`CCn1c2ccccc2c2cc(Nc3cccc(-c4ccco4)n3)ccc21` [Cmpd 132]: the IC50 was over 1000 nM and the “% neuroprotection (cell survival relative to control)” value turned out to be 105%.
As to `c1ccc2oc(-c3ccc(Nc4ccc(N5CCOCC5)cc4)nc3)cc2c1` [Cmpd 23], the IC50 stood at 920 nM and the “% neuroprotection (cell survival relative to control)” value was 96%.
As for `COc1ccc(Nc2ccc(-c3ccccc3)cn2)cc1` [Cmpd 82], the “% neuroprotection (cell survival relative to control)” value came to 72%.
Turning to `CCCCCOc1ccc(Nc2ccc(-c3ccc(N4CCOCC4)cc3)cn2)cc1` [Cmpd 6, 2-pyridinamine, 5-[4-(4-morpholinyl)phenyl]-N-[4-(pentyloxy)phenyl]-], the “% neuroprotection (cell survival relative to control)” value was determined as 83%. Moreover, for the setting “Mus musculus, Neuron”, the IC50 was 220 nM.
As for `COc1ccccc1-c1ccc(Nc2cc(OC)c(OC)c(OC)c2)nc1` [Cmpd 71], the “% neuroprotection (cell survival relative to control)” value came to 77%.
Regarding `CCn1c2ccccc2c2cc(Nc3cccc(-c4cccc(N)c4)n3)ccc21` [Cmpd 99], the IC50 turned out to be 330 nM and the “% neuroprotection (cell survival relative to control)” value stood at 105%.
On to `CCn1c2ccccc2c2cc(Nc3cccc(-c4ccc(OC)c(OC)c4)n3)ccc21` [Cmpd 129], for which the IC50 was 340 nM and the “% neuroprotection (cell survival relative to control)” value is on record as 92%.
Take `COc1cc(Nc2cccc(-c3ccc(C)c(C)c3)n2)cc(OC)c1OC` [Cmpd 126, 2-pyridinamine, 6-(3,4-dimethylphenyl)-N-(3,4,5-trimethoxyphenyl)-]: the “% neuroprotection (cell survival relative to control)” value is on record as 90%. Besides, the IC50 (Mus musculus, Neuron) worked out at 80 nM.
`c1cc(N2CCOCC2)ccc1Nc1ccc(-c2ccc3c(c2)OCO3)cn1` [Cmpd 30]: the IC50 was over 1000 nM and the “% neuroprotection (cell survival relative to control)” value came to 84%.
Turning to `CN(C)c1cccc(Nc2ccc(-c3ccc(N4CCN(C(=O)OC(C)(C)C)CC4)cc3)cn2)c1` [Cmpd 38], the “% neuroprotection (cell survival relative to control)” value came out at 89%.
On to `COc1ccc(Nc2cccc(-c3ccco3)n2)cc1` [Cmpd 131], for which the “% neuroprotection (cell survival relative to control)” value amounted to 95%. Besides, the IC50 (Mus musculus, Neuron) was determined as 240 nM.
Consider `CCn1c2ccccc2c2cc(Nc3ccc(-c4ccc(N5CCOCC5)cc4)cn3)ccc21` [Cmpd 77], for which the “% neuroprotection (cell survival relative to control)” value is on record as 82%.
Turning to `COc1cc(Nc2ccc(-c3ccc(N4CCN(C(=O)OC(C)(C)C)CC4)cc3)cn2)cc(OC)c1OC` [Cmpd 40], the “% neuroprotection (cell survival relative to control)” value came out at 77%.
Take `COc1ccc(Nc2ccc(-c3ccc(OC(F)(F)F)cc3)cn2)cc1` [Cmpd 3]: the IC50 turned out to be 510 nM and the “% neuroprotection (cell survival relative to control)” value is on record as 94%.
Regarding `COc1ccc(Nc2ccc(-c3ccc(N(C)C)cc3)cn2)cc1` [Cmpd 8, 2-pyridinamine, 5-[4-(dimethylamino)phenyl]-N-(4-methoxyphenyl)-], the “% neuroprotection (cell survival relative to control)” value was 83%. The half-maximal inhibitory concentration (IC50) (Mus musculus, Neuron) was 200 nM.
The corresponding values for `COc1ccc(Nc2cccc(-c3ccc4ccccc4c3)n2)c(C)c1OC` [Cmpd 136] are 86% and over 1000 nM.
Taken in the same sequence, the figures for `CCOc1cccc(-c2ccc(Nc3cc(OC)c(OC)c(OC)c3)nc2)c1` [Cmpd 12, 2-pyridinamine, 5-(3-ethoxyphenyl)-N-(3,4,5-trimethoxyphenyl)-] were 87% and 47 nM.
The corresponding values for `CCn1c2ccccc2c2cc(Nc3cccc(-c4cccc(N(C)C)c4)n3)ccc21` [Cmpd 104, 9H-carbazol-3-amine, N-[6-[3-(dimethylamino)phenyl]-2-pyridinyl]-9-ethyl-] are 89% and 90 nM.
Turning to `CCCCCOc1ccc(Nc2ccc(-c3ccc4c(c3)OCO4)cn2)cc1` [Cmpd 13, 2-pyridinamine, 5-(1,3-benzodioxol-5-yl)-N-[4-(pentyloxy)phenyl]-], the “% neuroprotection (cell survival relative to control)” value came to 98%. The IC50 (Mus musculus, Neuron) was 260 nM.
For `COc1cc(-c2ccc(Nc3ccc(N4CCOCC4)cc3)nc2)cc(OC)c1OC` [Cmpd 24], the IC50 worked out at 1760 nM and the “% neuroprotection (cell survival relative to control)” value turned out to be 94%.
